Entries after “also recorded” stand apart in the source; their conditions may differ.
Columns and labels:
[1] = Chemical stability of calcipotriol/BDP in the presence of different inner lacquers (Example 6); format: physicochemical
Protocol: Batches of Composition A prepared as described in Example 2 and placed in aluminium spray containers provided with two different types of inner lacquer, an epoxyphenol based lacquer (HOBA 7940/7407) and a polyimide-polyamide based lacquer (HOBA 8460), respectively, were tested for chemical stability of the active ingredients after standing for 1 month at 40° C. by spraying samples of each batch into a glass and subjecting them to HPLC by the procedure described in Example 3.

[2] = Solubility of calcipotriol and BDP in different propellant mixtures (Example 1); format: physicochemical; settings: for dissolution in propellant: 100% DME as the propellant; for dissolution in propellant mixture: ratio of butane to DME of 4:3, in both the propellant and vehicle phases, 67 mg BDP, 13 mg calcipotriol, 20 g vehicle
Protocol: 2×12 100 ml glass bottles fitted with a valve and actuator were filled with compositions containing 67 mg BDP, 13 mg calcipotriol, 20 g vehicle (comprising liquid paraffin, white soft paraffin and PPG-15-stearyl ether) and varying amounts of DME and butane as shown in Table 1. The composition formed a continuous phase and a dispersed phase presumed to be composed of long-chain alkanes (with ≥50 carbon atoms in the chain) present in the white soft paraffin. The dispersed phase sedimented in the bottom portion of the composition on standing. Thus, the top portion of the composition contained only the continuous phase, while the bottom portion of the composition was composed of a mixture of continuous and dispersed phases.
The sprayed samples were placed on a water bath at 40° C. for 5 hours until the propellant had evaporated. The samples were then cooled for 1 hour at room temperature.
Column: Agilent Zorbas Eclipse Plus C18, 150×4.6 mm, 3.5 μm
Mobile phase: acetonitrile/methanol/0.01M (NH4)2HPO4, pH 6.0, 25:45:30 (v/v/v)
Detection: […]. Calculation at 264 nm for calcipotriol and 240 nm for BDP

[3] = Physical stability by polarized light microscopy (Example 1); format: physicochemical; settings: compositions left to stand for 4 months
Protocol: The physical stability of calcipotriol and BDP in the composition was determined by polarized light microscopy.

[4] = Chemical stability of calcipotriol/BDP in the presence of different gasket materials (Example 8); format: physicochemical
Protocol: In order to test the compatibility of the composition with various gasket materials, samples were prepared with Composition E, see Example 2, filled in aluminum spray containers with a polyamide-polyimide inner lacquer and closed with a valve cup crimped to the container body. To each container, 10 pieces or an equivalent amount of gasket test material were added to the spray container and allowed to be submerged in the composition. The containers were stored at 25° C. or 40° C. and tested after 1 and 3 months at 40° C., and after 3 months at 25° C.
After storage, the composition was sprayed out in a glass bottle, and the propellants were allowed to evaporate for 2 days. The non-volatile part of the composition was analyzed for calcipotriol, betamethasone dipropionate and their related organic impurities.
The amount of calcipotriol was determined by HPLC after liquid extraction followed by a controlled isomerization at 50° C. Methyl testosterone was used as the internal standard. The following conditions were used for the HPLC analysis:
Column: LiChrospher RP-18, 125×4 mm, 5 μm
Mobile phase: Acetonitrile/methanol/0.01M (NH4)2PO4 (20:50:30)
Run time: Approx. 9 minutes
The organic impurities related to calcipotriol were determined by HPLC after liquid extraction, using the following conditions:
Column: YMC ODS-AM, 150×4.6 mm, 3 μm
Run time: 2 times the retention time of calcipotriol
The amount of betamethasone dipropionate was determined by HPLC after liquid extraction, using beclomethasone dipropionate as internal standard and the following HPLC conditions:
Column: Superspher RP-18, 75×4 mm, 4 μm
Mobile phase: Acetonitrile/water (50:55)
The organic impurities related to betamethasone dipropionate were extracted by liquid extraction and analyzed by HPLC using the following conditions:
Mobile phase: Acetonitrile/0.05M (NH4)2PO4 pH 7 (50:55)
Run time: Approx. 20 minutes

[5] = one study, M. Hannuksela et al., Contact Dermatitis 1, 1975; cited from earlier work
[6] = Composition E in contact with Buna and NPR gaskets
[7] = Composition E in contact with Viton and EPDM gaskets

| chemical stability: effect of the composition of the inner lacquers ([1]; epoxyphenol vs polyimide-polyamide lacquer) | dissolution in propellant [2] | dissolution in propellant mixture [2] | stability (in words) [4, 6] | stability (in words) [4, 7] | chemical stability (in words) ([1]; polyimide-polyamide based inner lacquer) | Structure (SMILES) | physical stability (recrystallization) [3] | chemical stability (in words) ([1]; epoxyphenol based inner lacquer of the spray container) | number of irritant reactions [5] |
| --- | --- | --- | --- | --- | --- | --- | --- | --- | --- |
| much less affected | completely dissolved | completely dissolved | decomposition | did not have negative impact | – | CCC(=O)OCC(=O)[C@@]1(OC(=O)CC)[C@@H](C)C[C@H]2[C@@H]3CCC4=CC(=O)C=C[C@]4(C)[C@@]3(F)[C@@H](O)C[C@@]21C [betamethasone dipropionate] | neither calcipotriol or BDP recrystallize | – | – |
| – | completely dissolved | completely dissolved | decomposition | did not have negative impact | acceptable; also recorded: satisfactory | C=C1/C(=C\C=C2/CCC[C@]3(C)[C@@H]([C@H](C)/C=C/[C@@H](O)C4CC4)CC[C@@H]23)C[C@@H](O)C[C@@H]1O [calcipotriol, Calcipotriol] | neither calcipotriol or BDP recrystallize | unacceptably degraded; also recorded: unacceptable chemical degradation | – |
| – | – | – | – | – | – | CC(O)CO (centres unmarked) [propylene glycol] | – | – | 12.5% |

Reference: patent US10660908B2, “Pharmaceutical spray composition comprising a vitamin D analogue and a corticosteroid” (LEO Pharma A/S, priority 2010, dated 2020)
